Key:
Assay type in all cases: cell-based
E. coli = assay: Bacteriostatic screening (growth, OD630) against E. coli; conditions: for inhibition rate EC (symbol /): at 250 μM of tested compound; for inhibition rate (%) EC: at 250 μM of the tested compound
Description: (§1) The strategy in this study was to submit these synthesized compounds to a preliminary screening test against E. coli, S. aureus and E. faecalis (ciprofloxacin was used as a reference compound; see Table 1). […] The tested compound or ciprofloxacin (positive drug) was dissolved in DMSO and diluted with LB liquid medium into a stock solution containing 20% DMSO before use; the stock solution of the carrier was 20% DMSO in LB liquid medium. All the experiments, including blank controls, were performed in triplicate. Bacteriostatic screening was performed by applying a modified protocol of the National Committee on Clinical Laboratory Standards (NCCLS).[29] Briefly, E. coli, S. aureus and E. faecalis cells (American Type Culture Collection, ATCC) were grown in LB plate medium for one passage, then seeded in LB liquid medium and cultured at 37 °C for 12 h. After being diluted 1000 times, 190 μL diluted cells were aliquoted to 96-well plates; then, 10 μL stock solution of carrier or a gradient amount of the tested compound or the positive compound, ciprofloxacin, were added; the final concentration of DMSO was 1% in all wells. The blank controls contained 1% DMSO and LB medium but no bacterial cells.

S. aureus = assay: Bacteriostatic screening (growth, OD630) against S. aureus; conditions: for inhibition rate SA (symbol /): at 250 μM of tested compound; for inhibition rate (%) SA: at 250 μM of the tested compound
Description: as §1

E. faecalis = assay: Bacteriostatic screening (growth, OD630) against E. faecalis; conditions: for inhibition rate (%) EF: at 250 μM of the tested compound; for IC50: 24 h, IC50 generated when inhibition at 250 μM was higher than 80%
Description: as §1

Molecule | inhibition rate EC (symbol /) (E. coli) | inhibition rate SA (symbol /) (S. aureus) | inhibition rate (%) EF (E. faecalis) | IC50 (E. faecalis) | inhibition rate (%) EC (E. coli) | inhibition rate (%) SA (S. aureus) | also measured
C=C1CCC2C3(C)COC(C)(C)OC3CCC2(C)C1CC=C1C(=O)OCC1Oc1ccc([N+](=O)[O-])c(F)c1 (stereo not drawn) [5a4, (14α)-(3′-Fluoro-4′-nitro)phenoxy-3,19-acetonylidene andrographolide] | / (“/”represents no inhibition or lower than 10% inhibition rate at 250 μM of tested compound) | / (“/”represents no inhibition or lower than 10% inhibition rate at 250 μM of tested compound) | (46) % | – | – | – | –
(14β)-(Quinolyl-4′-oxy)-3,19-acetonylidene andrographolide [5b16] | / (“/”represents no inhibition or lower than 10% inhibition rate at 250 μM of tested compound) | / (“/”represents no inhibition or lower than 10% inhibition rate at 250 μM of tested compound) | – | 15.5 ± 4.2 µM | – | – | –
O=C(O)c1cn(C2CC2)c2cc(N3CCNCC3)c(F)cc2c1=O [Ciprofloxacin, reference compound] | – | – | – | – | – | – | IC50 (E. coli; Escherichia coli, 24 h, IC50 generated when inhibition at 250 μM was higher than 80%): 0.31 ± 0.06 µM; IC50 (S. aureus; Staphylococcus aureus, 24 h, IC50 generated when inhibition at 250 μM was higher than 80%): 0.4 ± 0.06 µM; IC50 (E. faecalis; Enterococcus faecalis): 2.3 ± 0.6 µM
C=C1CCC2C(C)(CO)C(O)CCC2(C)C1CC=C1C(=O)OCC1Oc1ccc([N+](=O)[O-])c(F)c1 (stereo not drawn) [6b4, (14β)-(3′-Fluoro-4′-nitro)phenoxy-andrographolide] | – | – | – | 19.6 ± 2.7 µM | (60) % | (28) % | –
C=C1CCC2C3(C)COC(C)(C)OC3CCC2(C)C1CC=C1C(=O)OCC1Oc1ccc([N+](=O)[O-])cc1OC (stereo not drawn) [5b3, (14β)-(2′-Methoxy-4′-nitro)phenoxy-3,19-acetonylidene andrographolide] | / (“/”represents no inhibition or lower than 10% inhibition rate at 250 μM of tested compound) | – | – | – | – | – | inhibition rate (%) SA (S. aureus; 250 µM): (16) %; inhibition rate (%) EF (E. faecalis; 250 µM): (19) %
C=C1CCC2C3(C)COC(C)(C)OC3CCC2(C)C1CC=C1C(=O)OCC1Oc1ccc([N+](=O)[O-])cc1C(=O)OC (stereo not drawn) [5b1, (14β)-(2′-Carboxymethyl ester-4′-nitro)phenoxy-3,19-acetonylidene andrographolide] | – | – | (56) % | – | (22) % | – | inhibition rate (%) SA (S. aureus; 250 µM): (20) %
(14β)-(2′-Carboxy ethyl ester-4′-nitro)phenoxy-andrographolide [6b1] | – | – | – | 27.7 ± 3.5 µM | (17) % | (40) % | –
C=C1CCC2C3(C)COC(C)(C)OC3CCC2(C)C1CC=C1C(=O)OCC1Oc1ccc([N+](=O)[O-])c(OC)c1 (stereo not drawn) [5a5, (14α)-(3′-Methoxy-4′-nitro)phenoxy-3,19-acetonylidene andrographolide] | – | – | – | – | – | – | inhibition rate (%) EC (E. coli; 250 µM): (12) %; inhibition rate (%) SA (S. aureus; 250 µM): (10) %; inhibition rate (%) EF (E. faecalis; 250 µM): (73) %
C=C1CCC2C3(C)COC(C)(C)OC3CCC2(C)C1CC=C1C(=O)OCC1Oc1cccc(OC)c1 (stereo not drawn) [5b13, (14β)-(3′-Methoxy)phenoxy-3,19-acetonylidene andrographolide] | / (“/”represents no inhibition or lower than 10% inhibition rate at 250 μM of tested compound) | / (“/”represents no inhibition or lower than 10% inhibition rate at 250 μM of tested compound) | (17) % | – | – | – | –
C=C1CCC2C3(C)COC(C)(C)OC3CCC2(C)C1CC=C1C(=O)OCC1Oc1cccnc1[N+](=O)[O-] (stereo not drawn) [5b15, (14β)-(2′-Nitro-pyridinyl-3′-oxy)-3,19-acetonylidene andrographolide] | / (“/”represents no inhibition or lower than 10% inhibition rate at 250 μM of tested compound) | – | – | 38.4 ± 3.4 µM | – | – | inhibition rate (%) SA (S. aureus; 250 µM): (33) %
C=C1CCC2C(C)(CO)C(O)CCC2(C)C1CC=C1C(=O)OCC1Oc1ccc([N+](=O)[O-])c(OC)c1 (stereo not drawn) [6a5, (14α)-(3′-methoxy-4′-nitro)phenoxy-andrographolide] | – | – | – | 50.4 ± 2.7 µM | – | – | inhibition rate (%) EC (E. coli; 250 µM): (11) %; inhibition rate (%) SA (S. aureus; 250 µM): (10) %
C=C1CCC2C3(C)COC(C)(C)OC3CCC2(C)C1CC=C1C(=O)OCC1Oc1ccccc1OC (stereo not drawn) [5a12, (14α)-(2′-Methoxy)phenoxy-3,19-acetonylidene andrographolide] | / (“/”represents no inhibition or lower than 10% inhibition rate at 250 μM of tested compound) | / (“/”represents no inhibition or lower than 10% inhibition rate at 250 μM of tested compound) | – | – | – | – | inhibition rate (%) EF (E. faecalis; 250 µM): (49) %
C=C1CCC2C(C)(CO)C(O)CCC2(C)C1CC=C1C(=O)OCC1Oc1ccc([N+](=O)[O-])c(OC)c1 (stereo not drawn) [6b5, (14β)-(3′-Methoxy-4′-nitro)phenoxy-andrographolide] | – | – | – | 21.8 ± 2.5 µM | – | – | inhibition rate (%) EC (E. coli; 250 µM): (23) %; inhibition rate (%) SA (S. aureus; 250 µM): (37) %
C=C1CCC2C3(C)COC(C)(C)OC3CCC2(C)C1CC=C1C(=O)OCC1Oc1ccc([N+](=O)[O-])cc1F (stereo not drawn) [5b2, (14β)-(2′-Fluoro-4′-nitro)phenoxy-3,19-acetonylidene andrographolide] | – | – | (56) % | – | (11) % | (26) % | –
C=C1CCC2C3(C)COC(C)(C)OC3CCC2(C)C1CC=C1C(=O)OCC1Oc1ccc(C(=O)OCC)cc1 (stereo not drawn) [5a9, (14α)-(4′-Carboxyethyl ester)phenoxy-3,19-acetonylidene andrographolide] | / (“/”represents no inhibition or lower than 10% inhibition rate at 250 μM of tested compound) | – | (45) % | – | – | (10) % | –
C=C1CCC2C(C)(CO)C(O)CCC2(C)C1CC=C1C(=O)OCC1Oc1ccccc1C(=O)OCC (stereo not drawn) [6b8, (14β)-(2′-Carboxyethyl ester)phenoxy-andrographolide] | – | / (“/”represents no inhibition or lower than 10% inhibition rate at 250 μM of tested compound) | – | 89.7 ± 12 µM | (21) % | – | –
C=C1CCC2C(C)(CO)C(O)CCC2(C)C1CC=C1C(=O)OCC1Oc1ccc(OC)cc1 (stereo not drawn) [6b11, (14β)-(4′-Methoxy)phenoxy-andrographolide] | / (“/”represents no inhibition or lower than 10% inhibition rate at 250 μM of tested compound) | / (“/”represents no inhibition or lower than 10% inhibition rate at 250 μM of tested compound) | (17) % | – | – | – | –
C=C1CCC2C3(C)COC(C)(C)OC3CCC2(C)C1CC=C1C(=O)OCC1Oc1cccc2ccccc12 (stereo not drawn) [5b14, (14β)-(Naphthyl-1′-oxy)-3,19-acetonylidene andrographolide] | / (“/”represents no inhibition or lower than 10% inhibition rate at 250 μM of tested compound) | / (“/”represents no inhibition or lower than 10% inhibition rate at 250 μM of tested compound) | (47) % | – | – | – | –
C=C1CCC2C(C)(CO)C(O)CCC2(C)C1CC=C1C(=O)OCC1Oc1ccccc1C(=O)OCC (stereo not drawn) [6a8, (14α)-(2′-Carboxyethyl ester)phenoxy-andrographolide] | – | – | – | 83.3 ± 8.3 µM | (21) % | (17) % | –
C=C1CCC2C(C)(CO)C(O)CCC2(C)C1CC=C1C(=O)OCC1Oc1cccc([N+](=O)[O-])c1 (stereo not drawn) [6b7, (14β)-(3′-Nitro)phenoxy-andrographolide] | / (“/”represents no inhibition or lower than 10% inhibition rate at 250 μM of tested compound) | – | – | 17.8 ± 4.2 µM | – | 26% | –
C=C1CCC2C(C)(CO)C(O)CCC2(C)C1CC=C1C(=O)OCC1Oc1ccc(C(=O)OCC)cc1 (stereo not drawn) [6b9, (14β)-(4′-Carboxyethyl ester)phenoxy-andrographolide] | – | – | – | 53.3 ± 4.1 µM | (17) % | (40) % | –
(14β)-(4′-Cyano)phenoxy-3,19-acetonylidene andrographolide [5b10] | – | – | (46) % | – | (20) % | (22) % | –
C=C1CCC2C3(C)COC(C)(C)OC3CCC2(C)C1CC=C1C(=O)OCC1Oc1ccccc1OC (stereo not drawn) [5b12, (14β)-(2′-Methoxy)phenoxy-3,19-acetonylidene andrographolide] | / (“/”represents no inhibition or lower than 10% inhibition rate at 250 μM of tested compound) | – | – | – | – | (24) % | inhibition rate (%) EF (E. faecalis; 250 µM): (52) %

From publication PMC9078697, “Discovery and preliminary SAR of 14-aryloxy-andrographolide derivatives as antibacterial agents with immunosuppressant activity” (RSC Advances, 2018)
